Results reported in the supplement of paper PMC10733146.

Key:
Assay in all cases: viability relative to DMSO control (fraction); higher = less drug effect (more viable cells)
Details in all cases: 48 h
[1] = system: primary AML patient cells (S002)
Procedure, shortened: (§1)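 Compounds were pre-plated at five concentrations, one well each, in 384-well plates, and primary mononuclear tumour cells were plated on them at 4 × 10^4 cells per well. The cells, fresh or cryopreserved, had been Ficoll-isolated from blood or bone marrow or taken from processed lymph node. After 48 h at 37 °C and 5% CO2 in RPMI-1640 with penicillin/streptomycin, L-glutamine and human serum, viability was read as CellTiter-Glo luminescence relative to the median of 16 inner DMSO wells.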

[2] = system: primary AML patient cells (S009)
Procedure, shortened: as §1

[3] = system: primary AML patient cells (S019)
Procedure, shortened: as §1

[4] = system: primary AML patient cells (S025)
Procedure, shortened: as §1

[5] = system: primary AML patient cells (S037)
Procedure, shortened: as §1

[6] = system: primary AML patient cells (S055)
Procedure, shortened: as §1

[7] = system: primary AML patient cells (S071)
Procedure, shortened: as §1

[8] = system: primary AML patient cells (S072)
Procedure, shortened: as §1

[9] = system: primary AML patient cells (S079)
Procedure, shortened: as §1

[10] = system: primary AML patient cells (S089)
Procedure, shortened: as §1

[11] = system: primary AML patient cells (S091)
Procedure, shortened: as §1

[12] = system: primary DLBCL patient cells (S082)
Procedure, shortened: as §1

[13] = system: primary MCL patient cells (S041)
Procedure, shortened: as §1

[14] = system: primary T-PLL patient cells (S008)
Procedure, shortened: as §1

For CC(C)(C)C[C@@H]1N[C@@H](C(=O)N[C@H]2CC[C@H](O)CC2)[C@H](c2cccc(Cl)c2F)[C@]12C(=O)Nc1cc(Cl)ccc12 [MI-773], the viability ([1]; 0.008 µM) was 0.994, the viability ([1]; 0.04 µM) was 0.926 and the viability ([1]; 0.2 µM) was 0.688. It also gave a viability ([1]; 1 µM) of 0.413, a viability ([1]; 5 µM) of 0.253 and a viability ([2]; 0.008 µM) of 0.894. For the same compound, the viability ([2]; 0.04 µM) was 0.755, the viability ([2]; 0.2 µM) was 0.698 and the viability ([2]; 1 µM) was 0.56. It also gave a viability ([2]; 5 µM) of 0.524, a viability ([3]; 0.008 µM) of 1.34 and a viability ([3]; 0.04 µM) of 1.23. The viability ([3]; 0.2 µM) was 1.19, the viability ([3]; 1 µM) was 0.689 and the viability ([3]; 5 µM) was 0.343. It also gave a viability ([4]; 0.008 µM) of 1.12, a viability ([4]; 0.04 µM) of 0.901 and a viability ([4]; 0.2 µM) of 0.818. It also gave a viability ([4]; 1 µM) of 0.421, a viability ([4]; 5 µM) of 0.202 and a viability ([5]; 0.008 µM) of 1.04. The viability ([5]; 0.04 µM) was 1.01, the viability ([5]; 0.2 µM) was 1.01 and the viability ([5]; 1 µM) was 0.742. It also gave a viability ([5]; 5 µM) of 0.453, a viability ([6]; 0.008 µM) of 1.01 and a viability ([6]; 0.04 µM) of 1.01. The viability ([6]; 0.2 µM) was 0.997, the viability ([6]; 1 µM) was 0.919 and the viability ([6]; 5 µM) was 0.409. For the same compound, the viability ([7]; 0.008 µM) was 0.991, the viability ([7]; 0.04 µM) was 0.732 and the viability ([7]; 0.2 µM) was 0.32. It also gave a viability ([7]; 1 µM) of 0.132, a viability ([7]; 5 µM) of 0.0874 and a viability ([8]; 0.008 µM) of 1.06. The viability ([8]; 0.04 µM) was 0.843, the viability ([8]; 0.2 µM) was 0.934 and the viability ([8]; 1 µM) was 0.775. The viability ([8]; 5 µM) was 0.762, the viability ([9]; 0.008 µM) was 1.01 and the viability ([9]; 0.04 µM) was 1.01. For the same compound, the viability ([9]; 0.2 µM) was 1.01, the viability ([9]; 1 µM) was 0.901 and the viability ([9]; 5 µM) was 0.636. The viability ([10]; 0.008 µM) was 0.993, the viability ([10]; 0.04 µM) was 0.973 and the viability ([10]; 0.2 µM) was 0.938. The viability ([10]; 1 µM) was 0.842, the viability ([10]; 5 µM) was 0.493 and the viability ([11]; 0.008 µM) was 0.979. For the same compound, the viability ([11]; 0.04 µM) was 0.781, the viability ([11]; 0.2 µM) was 0.587 and the viability ([11]; 1 µM) was 0.428. For the same compound, the viability ([11]; 5 µM) was 0.321, the viability ([12]; 0.008 µM) was 1.07 and the viability ([12]; 0.04 µM) was 0.971. For the same compound, the viability ([12]; 0.2 µM) was 1.14, the viability ([12]; 1 µM) was 0.98 and the viability ([12]; 5 µM) was 1.03. The viability ([13]; 0.008 µM) was 1.02, the viability ([13]; 0.04 µM) was 0.976 and the viability ([13]; 0.2 µM) was 0.92. It also gave a viability ([13]; 1 µM) of 0.752, a viability ([13]; 5 µM) of 0.434 and a viability ([14]; 0.008 µM) of 0.99. The viability ([14]; 0.04 µM) was 0.946, the viability ([14]; 0.2 µM) was 0.989 and the viability ([14]; 1 µM) was 0.677. The viability ([14]; 5 µM) was 0.258.
For O=C1c2c(O)ccc(O)c2C(=O)c2c(NCCNCCO)ccc(NCCNCCO)c21 [Mitoxantrone], the viability ([1]; 0.008 µM) was 0.744, the viability ([1]; 0.04 µM) was 0.443 and the viability ([1]; 0.2 µM) was 0.332. For the same compound, the viability ([1]; 1 µM) was 0.334, the viability ([1]; 5 µM) was 0.22 and the viability ([2]; 0.008 µM) was 0.788. For the same compound, the viability ([2]; 0.04 µM) was 0.651, the viability ([2]; 0.2 µM) was 0.517 and the viability ([2]; 1 µM) was 0.156. The viability ([2]; 5 µM) was 0.0504, the viability ([3]; 0.008 µM) was 0.647 and the viability ([3]; 0.04 µM) was 0.256. For the same compound, the viability ([3]; 0.2 µM) was 0.282, the viability ([3]; 1 µM) was 0.132 and the viability ([3]; 5 µM) was 0.0646. It also gave a viability ([4]; 0.008 µM) of 0.539, a viability ([4]; 0.04 µM) of 0.399 and a viability ([4]; 0.2 µM) of 0.533. For the same compound, the viability ([4]; 1 µM) was 0.0658, the viability ([4]; 5 µM) was 0.0287 and the viability ([5]; 0.008 µM) was 0.843. The viability ([5]; 0.04 µM) was 0.581, the viability ([5]; 0.2 µM) was 0.447 and the viability ([5]; 1 µM) was 0.345. The viability ([5]; 5 µM) was 0.211, the viability ([6]; 0.008 µM) was 0.978 and the viability ([6]; 0.04 µM) was 0.869. For the same compound, the viability ([6]; 0.2 µM) was 0.821, the viability ([6]; 1 µM) was 0.729 and the viability ([6]; 5 µM) was 0.234. It also gave a viability ([7]; 0.008 µM) of 0.139, a viability ([7]; 0.04 µM) of 0.125 and a viability ([7]; 0.2 µM) of 0.124. It also gave a viability ([7]; 1 µM) of 0.102, a viability ([7]; 5 µM) of 0.0662 and a viability ([8]; 0.008 µM) of 0.839. For the same compound, the viability ([8]; 0.04 µM) was 0.715, the viability ([8]; 0.2 µM) was 0.661 and the viability ([8]; 1 µM) was 0.152. The viability ([8]; 5 µM) was 0.0445, the viability ([9]; 0.008 µM) was 0.801 and the viability ([9]; 0.04 µM) was 0.655. For the same compound, the viability ([9]; 0.2 µM) was 0.526, the viability ([9]; 1 µM) was 0.133 and the viability ([9]; 5 µM) was 0.0172. For the same compound, the viability ([10]; 0.008 µM) was 0.339, the viability ([10]; 0.04 µM) was 0.966 and the viability ([10]; 0.2 µM) was 0.0966. For the same compound, the viability ([10]; 1 µM) was 0.0273, the viability ([10]; 5 µM) was 0.0313 and the viability ([11]; 0.008 µM) was 0.494. For the same compound, the viability ([11]; 0.04 µM) was 0.563, the viability ([11]; 0.2 µM) was 0.46 and the viability ([11]; 1 µM) was 0.118. For the same compound, the viability ([11]; 5 µM) was 0.0676, the viability ([12]; 0.008 µM) was 0.886 and the viability ([12]; 0.04 µM) was 0.691. It also gave a viability ([12]; 0.2 µM) of 0.541, a viability ([12]; 1 µM) of 0.538 and a viability ([12]; 5 µM) of 0.0152. For the same compound, the viability ([13]; 0.008 µM) was 0.985, the viability ([13]; 0.04 µM) was 0.862 and the viability ([13]; 0.2 µM) was 0.569. The viability ([13]; 1 µM) was 0.0728, the viability ([13]; 5 µM) was 0.015 and the viability ([14]; 0.008 µM) was 1.02. For the same compound, the viability ([14]; 0.04 µM) was 0.961, the viability ([14]; 0.2 µM) was 0.502 and the viability ([14]; 1 µM) was 0.0553. For the same compound, the viability ([14]; 5 µM) was 0.0424.
